US20020127605A1 (priority 2000, published 2002)
Read-outs that look alike come from different tables or passages of the source.

Key:
human recombinant CyPA [1] = biological target: T1, human recombinant CyPA (Homo sapiens, UniProt P62937); assay: Rotamase inhibition, chymotrypsin-coupled cuvette assay (asterisked values); assay type: biochemical
Text: (§1) A number of substrates for rotamase are known in the art or can be derived from those known. Typically, the substrate contacts a sample containing a protein with rotamase activity and the conversion of the substrate is detected after a period of time. The method for detecting conversion of the substrate will vary with the particular substrate chosen. One method has been termed the Ki test (See Harding, et al., Nature, 341:758-760 (1989). The cis-trans isomerization of an alanine-proline bond in a model substrate, N-succinyl-Ala-Ala-Pro-Phe-p-nitroanilide, is monitored spectrophotometrically in a chymotrypsin-coupled assay. The action of chymotrypsin releases p-nitroaniline from only the trans form of the substrate. The amount of p-nitroaniline can be monitored in a spectrophotometer, for example. Other methods of detecting the presence of p-nitroaniline can also be used. The inhibition of this reaction caused by different concentrations of inhibitor is determined and the data are analyzed as a change in first-order rate constant as a function of inhibitor concentration, which yields the Ki value.
(§2) The following were added to a plastic cuvette: […] of ice cold assay buffer (25 mM HEPES, pH 7.8, 100 mM NaCl), 10 μL of CyP A (2.5 μM in 10 mM Tris-Cl pH 7.5, 100 mM NaCl, 1 mM dithiothreitol), 25 μL of chymotrypsin (50 mg/ml in 1 mM HCl), and 10 μL of test compound, at various concentrations, in dimethyl sulfoxide. The reaction was initiated by the addition of 5 μL of substrate (succinyl-Ala-Phe-Pro-Phe-para-nitroanilide, 5 mg/mL in 470 mM LiCl in trifluoroethanol). The absorbance at 390 nm versus time was monitored for 90 seconds using a spectrophotometer and the rate constants were determined from the absorbance versus time data files.
(§3) The IC50 values that were obtained for representative compounds in the following Table I refer to the concentration that inhibits 50% of the rotamase activity in a sample. […] The Cyclophilin utilized was a recombinant rat CyPA-GST fusion protein: CypA was amplified from rat brain cDNA using standard PCR methods, primed with the following sequences: 5′ CCCCCCGGGAGTCAACCCCACCGTGTTCTTCGA 3′ and 5′ GGAGATCTAGAGTTGTCCACAGTCGGAGATGGT 3′. The resulting fragment (573 base pairs) was cloned into pCRII and amplified. The CyP sequence was cut out with Smal and EcoRl and cloned into the Smal/EcoRl sites in pGEX2TK (Pharmacia). This plasmid was transformed into BL21 E. coli cells for expression of the GST-CyPA fusion protein.

[2] = biological target: T2, recombinant rat CyPA-GST fusion protein (Rattus norvegicus, UniProt P10111); assay: Rotamase (prolyl peptidyl cis-trans isomerase) inhibition, chymotrypsin-coupled cuvette assay; assay type: biochemical
T2 construct: made in house; host or cells: E. coli BL21
Text: as §1, §2, §3

[3] = tested on: striatal tyrosine hydroxylase-immunoreactive fibres; assay: MPTP-lesioned mouse model of Parkinson's disease, striatal TH fiber density; assay type: in vivo; conditions: 10 mg/kg s.c. in Intralipid once daily days 1-5, one hour prior to MPTP; analysis day seven
Text: MPTP (N-methyl-4-phenyl-1,2,3,6-tetrahydropyridine) is a systemically available neurotoxin specific to nigrostriatal dopaminergic neurons, i.e. to the cells that degenerate in human Parkinson's disease. Administration of MPTP to mice leads to a selective partial destruction of the mesotelencephalic dopaminergic projection, and to a loss of dopamine and dopaminergic fibres in the corpus striatum, which is the main forebrain target of midbrain dopaminergic neurons.
Young adult male CD1 albino mice (Harlan—Sprague Dawley; 22-25 g) were dosed i.p. with the dopamine cell-specific neurotoxin N-methyl-4-phenyl-1,2,3,6-tetrahydropyridine (MPTP hydrochloride, calculated as 34 mg/kg free base), dissolved in saline at a concentration of 3.4 mg/ml free base once daily on days one to five. […]
Blinded analysis of TH fiber density in the central striatum was performed at 630× magnification. […] The percentage of sample field covered by TH positive processes and terminals was calculated using an image analysis program (“Simple,” Compix Inc., Pittsburgh, Pa.). The mean striatal innervation density was calculated for each group. The magnitude of striatal deafferentation due to the MPTP lesion was assessed by dividing the observed striatal innervation values obtained in MPTP/vehicle treated cases by the mean striatal innervation density in the Vehicle/Vehicle group and expressed as % loss. […]

human recombinant CyPA [4] = biological target: T1, human recombinant CyPA; assay: Semiautomated microtiter plate assay of rotamase activity inhibition; assay type: biochemical; conditions: 30 minute preincubation at 4° C., read-out: IC50 (rotamase inhibition, modified plate reader assay)
Method: Semiautomated Assay of Rotamase Activity Inhibition: Rotamase inhibition was determined using a semiautomated microtiter plate assay modification of the above described assay [see Küillertz et al., Clin. Chem. 44, 502-508 (1998)]. All dilutions of CyPA, peptide substrate, and chymotrypsin were made in 35 mM ice-cold HEPES buffer. Fifty μL of CyPA solution were added to 50 μL of peptide substrate solution (Phe-Pro-Phe p-nitroanilide, 0.16 mg/ml) in a glass microtiter well plate (the concentration of human recombinant CyP being adjusted so that the reaction rate is increased by a factor of 3 as compared to an uncatalyzed control reaction wherein the peptide substrate is degraded by chymotrypsin alone, in the absence of CyPA and test compound). Using a Beckman Multimek™ 96 automated 96-channel pipettor, 5 μL of test compound solution, or a DMSO blank, were added to each well for a 30 minute preincubation at 4° C. One hundred μL of chymotrypsin solution (1 mg/mL) were added to each well and the absorbance at 390 nm versus time was monitored for 9-10 minutes using a BioRad Ultramark plate reader maintained at 4° C. and the rate constants were determined from the absorbance versus time data files. The cyclophilin utilized was a human recombinant CyPA [Yoo et al., J. Mol. Biol., 269 (1997) 780-95].
IC50 values which were obtained for representative compounds using this modified plate reader assay of rotamase inhibition are given in the following Table II: […]

[5] = human recombinant CyPA, values with asterisk, read-out: IC50 (rotamase activity)

T2 sequence (P10111 2-164): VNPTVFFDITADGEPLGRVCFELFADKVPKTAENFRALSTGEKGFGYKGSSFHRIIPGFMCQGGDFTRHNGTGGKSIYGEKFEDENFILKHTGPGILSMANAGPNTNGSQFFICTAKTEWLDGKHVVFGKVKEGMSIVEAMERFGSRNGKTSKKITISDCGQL
T1 sequence (P62937 whole entry): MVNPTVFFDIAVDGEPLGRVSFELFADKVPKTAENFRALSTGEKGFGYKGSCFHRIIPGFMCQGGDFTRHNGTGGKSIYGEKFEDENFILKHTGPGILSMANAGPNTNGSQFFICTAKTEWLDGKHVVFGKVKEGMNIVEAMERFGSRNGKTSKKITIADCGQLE

Row | Molecule | IC50 (human recombinant CyPA [4]) | IC50 (human recombinant CyPA [1]; [5]) | further results
1 | O=C(Nc1cccc(N(S(=O)(=O)c2ccc3ccccc3c2)S(=O)(=O)c2ccc3ccccc3c2)c1)c1cc(Cl)cc(Cl)c1 [Compound 8] |  |  | IC50 (human recombinant CyPA [1]): 804 nM; IC50 [2]: 701 nM
2 | O=C(Nc1cccc(N(S(=O)(=O)c2cc(Cl)cc(Cl)c2)S(=O)(=O)c2cc(Cl)cc(Cl)c2)c1)c1cc(Cl)cc(Cl)c1 [Compound 8a] |  |  | protection of striatal tyrosine hydroxylase-immunoreactive fibres [3]: 37,2%; IC50 [2]: 364 nM
3 | O=C(NNC(=O)c1cccc(NC(=O)c2cccc(OCc3ccccc3)c2)c1)c1cc(Cl)cc(Cl)c1 [Compound 30, 1-{3-[(3-Benzyloxy)phenylcarboxamido]benzoyl}-2-(3,5-dichlorobenzoyl)hydrazine] | 3760 nM | 464 nM | 
4 | O=C(NNS(=O)(=O)c1ccc(Cl)c(Cl)c1)c1cccc(NC(=O)c2cccc(OCc3ccccc3)c2)c1 [Compound 31, 1-{3-[(3-Benzyloxy)phenylcarboxamido]benzoyl}-2-(3,4-dichlorobenzenesulfonyl)hydrazine] | 2710 nM | 974 nM | 
5 | O=C(CCCCc1ccccc1)Nc1cccc(C(=O)NNC(=S)Nc2ccc(Cl)c(Cl)c2)c1 [Compound 33, 1-{3-[(5-Phenyl)valeroylamino]benzoyl}-4-(3,4-dichlorophenyl)thiosemicarbazide] | 713 nM | 85 nM | 
6 | O=C(CCCCc1ccccc1)Nc1cccc(-c2nnc(Nc3ccc(Cl)c(Cl)c3)s2)c1 [Compound 40A, 5-Phenyl-pentanoic acid {3-[5-(3,4-dichloro-phenylamino)-[1,3,4]thiadiazol-2-yl]-phenyl}-amide] | 2800 nM |  | 
7 | O=C(CCCCc1ccccc1)Nc1cccc(C(=O)NNC(=S)NC23CC4CC(CC(C4)C2)C3)c1 [Compound 41, 1-[(6-Phenyl-1-aza-2-oxo)hexyl]-3-{[(adamant-1-yl)-1-oxo-2,3,5-triaza-4-thio]pentyl}-benzene] | 5190 nM |  | 
8 | O=C(CCCCc1ccccc1)Nc1cccc(NC(=O)CC(=O)Nc2ccc(Cl)c(Cl)c2)c1 [Compound 42, 1-[(6-Phenyl-1-aza-2-oxo)hexyl]-3-{[5-(3,4-dichlorophenyl)-1,5-diaza-2,4-oxo]pentyl}-benzene] | 6090 nM |  | 
9 | O=C(CCCCc1ccccc1)Nc1ccc(C(=O)NNC(=S)Nc2ccc(Cl)c(Cl)c2)cc1 [Compound 43, 1-{4-[(5-Phenyl)pentanoylamino]benzoyl}-4-(3,4-dichlorophenyl)thiosemicarbazide] | 1570 nM |  | 
10 | L-N-[3-(6-Phenylhexanoylamino)benzoyl]proline 3,4-dichlorobenzamide [Compound 36] | 9050 nM |  | 

Continued, in another order:

Row | IC50 (human recombinant CyPA [4]) | IC50 (human recombinant CyPA [1]; [5]) | Molecule | further results
11 | 2060 nM |  | S=C(Nc1ccc(I)cc1)NC1CCCCC1NC(=S)Nc1ccc(I)cc1 (stereo not drawn) [Compound 13, [(4-iodophenyl)amino]{[2-({[(4-iodophenyl)amino]thioxomethyl}amino)cyclohexyl]amino}methane-1-thione] | IC50 ([2]; recombinant rat CyPA-GST fusion protein, values without asterisk, read-out: IC50 (rotamase activity)): 680 nM
12 |  | 512 nM | S=C(Nc1cc(Cl)cc(Cl)c1)Nc1cccc(C=NN(c2ccccc2)c2ccccc2)c1 [Compound 21, ({3-[2-aza-2-(diphenylamino)vinyl]phenyl}amino)[(3,5-dichlorophenyl)amino]methane-1-thione] | 
13 |  | 733 nM | O=S(=O)(Oc1cccc(NC(=S)Nc2cc(Cl)cc(Cl)c2)c1)c1c(F)c(F)c(F)c(F)c1F [Compound 22, 3-({[(3,5-dichlorophenyl)amino]thioxomethyl}amino)phenyl 2,3,4,5,6-pentafluorobenzenesulfonate] | 
14 | 883 nM |  | O=C(CCCCc1ccccc1)Nc1cccc(-c2nnc(Nc3ccc(Cl)c(Cl)c3)o2)c1 [Compound 40B, 5-Phenyl-pentanoic acid {3-[5-(3,4-dichloro-phenylamino)-[1,3,4]oxadiazol-2-yl]-phenyl}-amide] | 
15 | 130 nM |  | O=C(CCCCCc1cccc(C(F)(F)F)c1)Nc1cccc(S(=O)(=O)NC(=S)Nc2ccc(Cl)c(Cl)c2)c1 [Compound 45] | 
